Data reported in patent publication US12037345B2, “Heterobicyclic compounds for inhibiting the activity of SHP2” (TAIHO PHARMACEUTICAL CO., LTD., priority 2018, dated 2024).

Legend:
[1] = biological target: SHP2 (Homo sapiens (Human), UniProt Q06124); assay: SHP2 Biochemical Assay (DiFMUP conversion, pIRS1-activated); conditions: Table 19; head prints unit as "-M"
Description: SHP2 activity was monitored by measuring the conversion of the surrogate substrate 6,8-difluoromethylumbelliferyl phosphate (DiFMUP) to the fluorescent product, 6,8-difluoromethylumbelliferone (DiFMU).
SHP2 was pre-incubated with test compounds and the activating peptide pIRS1 (H2N-LN(pY)IDLDLV-(PEG)8-LST(pY)ASINFQK-amide) for 30 min, prior to addition of the 6,8-difluoromethylumbelliferyl phosphate (DiFMUP), (Thermo Fisher D6567). Final assay concentrations were 10 pM SHP2, […] pIRS1 peptide, 50 μM DiFMUP, 25 mM Bis-Tris propane, pH 7.0, 150 mM NaCl, 0.05% (v/v) Tween-20, 0.5 mM TCEP and 5% (v/v) DMSO. Rates of reaction were then measured over 30 min by monitoring fluorescence on a BMG Pherastar reader at excitation 360 nm/emission 450 nm. IC50 values were calculated in singlicate from the normalized dose-response plots using four parameter logistic curve fit. The Experiment for each compound was carried out in one time or multiple times, and the IC50 values were shown as a single value (for a compound measured in a single experiment) or an average value (for a compound measured in multiple experiments).

[2] = test system: pERK (phospho-p44/42 ERK) in HCC827 cells; assay: Cellular pERK Inhibition Assay, Method A (In-Cell Western); format: cell-based; conditions: Homo sapiens, Table 19, head prints unit as "-M", read-out: pERK (IC50) Method A
Description: Cellular pERK Inhibition Assay
pERK levels were determined using the In-Cell Western assay. HCC827 cells (ATCC, Manassas, USA) were seeded into 384-well plates at a density of 1×10^4 cells/well in RPMI1640 medium supplemented with 10% FBS and incubated 24h. Compounds were diluted first in DMSO and then into serum-free medium, before being added to cells in quadruplicate to give a final concentration of 0.2% DMSO. Plates were incubated at 37° C. for the indicated time in a humidified atmosphere of 5% CO2 in air.
Following compound treatment, cells were fixed with formalin neutral buffer solution for 20 minutes at room temperature. Plates were washed three times with 0.1% Triton-X in PBS and cells were blocked for 1 hour with Odyssey blocking buffer (LI-COR, #927-40000). After shaking out blocking buffer, cells were incubated with phospho-p44/42 ERK antibody (Cell Signalling Technology, #4370, 1:200) diluted in Odyssey blocking buffer at 4° C. overnight. Plates were washed again and cells were incubated for 1 hour with Goat anti-Rabbit […] (LI-COR, #926-32211, 1:800) diluted in Odyssey blocking buffer. After washing and removing wash solution completely using a centrifuge machine, cells were scanned on the Odyssey (LI-COR), following the manufacturer's instructions. The average signal from blank wells (no cells added) was subtracted from the signals from each sample well. Levels of pERK were then expressed as percent of control, using DMSO treated samples as control. The relative IC50 values were calculated in quadruplicate from the normalized dose-response plots using four parameter logistic curve fit. The Experiment for each compound was carried out in one time or multiple times, and the IC50 values were shown as a single value (for a compound measured in a single experiment) or an average value (for a compound measured in multiple experiments).

Chain of SHP2 (Q06124 whole entry): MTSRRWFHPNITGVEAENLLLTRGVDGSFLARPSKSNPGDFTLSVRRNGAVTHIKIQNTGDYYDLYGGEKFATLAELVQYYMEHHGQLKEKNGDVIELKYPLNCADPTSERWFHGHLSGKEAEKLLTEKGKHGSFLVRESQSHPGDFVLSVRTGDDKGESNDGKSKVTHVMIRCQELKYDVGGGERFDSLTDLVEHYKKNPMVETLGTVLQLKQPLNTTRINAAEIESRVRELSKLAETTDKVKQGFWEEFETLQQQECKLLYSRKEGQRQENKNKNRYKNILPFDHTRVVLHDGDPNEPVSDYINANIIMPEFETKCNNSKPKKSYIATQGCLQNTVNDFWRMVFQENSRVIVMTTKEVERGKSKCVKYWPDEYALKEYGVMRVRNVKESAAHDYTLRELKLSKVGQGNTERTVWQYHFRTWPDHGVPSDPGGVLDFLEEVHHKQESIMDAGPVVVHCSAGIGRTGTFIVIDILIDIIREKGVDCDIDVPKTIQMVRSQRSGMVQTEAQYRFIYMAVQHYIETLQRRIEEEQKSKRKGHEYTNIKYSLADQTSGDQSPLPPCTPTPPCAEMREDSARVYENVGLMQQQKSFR

Work on Cn1cc2c(Cl)c(-c3c[nH]c4nc(N5C[C@H]6CC[C@@H]5[C@@H]6N)n(C)c(=O)c34)ccc2n1 (stereo in doubt) [Example 157, rel-2-((1R,4R,7R)-7-Amino-2-azabicyclo[2.2.1]heptan-2-yl)-5-(4-chloro-2-methyl-2H-indazol-5-yl)-3-methyl-3,7-dihydro-4H-pyrrolo[2,3-d]pyrimidin-4-one] yielded an IC50 [1] of 3.7 nM and an IC50 [2] of 22 nM.

Cn1cc2c(Cl)c(-c3c[nH]c4nc(N5C6CCC5CNC6)n(C)c(=O)c34)ccc2n1 [Example 1, 2-(3,8-diazabicyclo[3.2.1]octan-8-yl)-5-(4-chloro-2-methyl-2H-indazol-5-yl)-3-methyl-3,7-dihydro-4H-pyrrolo[2,3-d]pyrimidin-4-one] showed an IC50 [1] of 14 nM and an IC50 [2] of 140 nM.

CCn1cc2c(Cl)c(-c3c[nH]c4nc(N5CCC(C)(CN)CC5)n(C)c(=O)c34)ccc2n1 [Example 2, 2-(4-(aminomethyl)-4-methylpiperidin-1-yl)-5-(4-chloro-2-ethyl-2H-indazol-5-yl)-3-methyl-3,7-dihydro-4H-pyrrolo[2,3-d]pyrimidin-4-one] gave an IC50 [1] of 14 nM and an IC50 [2] of 130 nM.

CCn1cc2c(Cl)c(-c3c[nH]c4nc(N5CCC(C)(N)CC5)n(C)c(=O)c34)ccc2n1 [Example 3, 2-(4-amino-4-methylpiperidin-1-yl)-5-(4-chloro-2-ethyl-2H-indazol-5-yl)-3-methyl-3,7-dihydro-4H-pyrrolo[2,3-d]pyrimidin-4-one] showed an IC50 [1] of 15 nM and an IC50 [2] of 210 nM.

Compound CCn1cc2c(Cl)c(-c3c[nH]c4nc(N5[C@@H]6CC[C@H]5C[C@H](N)C6)n(C)c(=O)c34)ccc2n1 [Example 4, 2-(exo-3-amino-8-azabicyclo[3.2.1]octan-8-yl)-5-(4-chloro-2-ethyl-2H-indazol-5-yl)-3-methyl-3,7-dihydro-4H-pyrrolo[2,3-d]pyrimidin-4-one] has an IC50 [1] of 7.5 nM and an IC50 [2] of 120 nM.

Work on CCn1cc2c(Cl)c(-c3c[nH]c4nc(N5[C@@H]6CC[C@H]5C[C@@H](N)C6)n(C)c(=O)c34)ccc2n1 [Example 5, 2-(endo-3-amino-8-azabicyclo[3.2.1]octan-8-yl)-5-(4-chloro-2-ethyl-2H-indazol-5-yl)-3-methyl-3,7-dihydro-4H-pyrrolo[2,3-d]pyrimidin-4-one] yielded an IC50 [1] of 7.5 nM and an IC50 [2] of 160 nM.

Compound CCc1nc2ccc(-c3c[nH]c4nc(N5[C@@H]6CC[C@H]5C[C@@H](N)C6)n(C)c(=O)c34)c(Cl)c2s1 [Example 6, 2-(endo-3-amino-8-azabicyclo[3.2.1]octan-8-yl)-5-(7-chloro-2-ethylbenzo[d]thiazol-6-yl)-3-methyl-3,7-dihydro-4H-pyrrolo[2,3-d]pyrimidin-4-one] has an IC50 [1] of 6.5 nM and an IC50 [2] of 580 nM.

Compound Cc1nc2ccc(-c3c[nH]c4nc(N5[C@@H]6CC[C@H]5C[C@@H](N)C6)n(C)c(=O)c34)c(Cl)c2s1 [Example 7, 2-(endo-3-amino-8-azabicyclo[3.2.1]octan-8-yl)-5-(7-chloro-2-methylbenzo[d]thiazol-6-yl)-3-methyl-3,7-dihydro-4H-pyrrolo[2,3-d]pyrimidin-4-one] has an IC50 [1] of 9 nM and an IC50 [2] of 170 nM.

Work on Cn1cc2c(Cl)c(-c3c[nH]c4nc(N5[C@@H]6CC[C@H]5C[C@@H](N)C6)n(C)c(=O)c34)ccc2n1 [Example 8, 2-(endo-3-amino-8-azabicyclo[3.2.1]octan-8-yl)-5-(4-chloro-2-methyl-2H-indazol-5-yl)-3-methyl-3,7-dihydro-4H-pyrrolo[2,3-d]pyrimidin-4-one] yielded an IC50 [1] of 11 nM and an IC50 [2] of 95 nM.

Cn1c(N2[C@@H]3CC[C@H]2C[C@@H](N)C3)nc2[nH]cc(-c3ccc4nn(C(C)(C)C)cc4c3Cl)c2c1=O [Example 9, 2-(endo-3-amino-8-azabicyclo[3.2.1]octan-8-yl)-5-(2-(tert-butyl)-4-chloro-2H-indazol-5-yl)-3-methyl-3,7-dihydro-4H-pyrrolo[2,3-d]pyrimidin-4-one] gave an IC50 [1] of 94 nM and an IC50 [2] of 1200 nM.

Compound Cn1cc2c(Cl)c(-c3c[nH]c4nc(N5[C@@H]6CC[C@H]5C[C@H](N)C6)n(C)c(=O)c34)ccc2n1 [Example 10, 2-(exo-3-amino-8-azabicyclo[3.2.1]octan-8-yl)-5-(4-chloro-2-methyl-2H-indazol-5-yl)-3-methyl-3,7-dihydro-4H-pyrrolo[2,3-d]pyrimidin-4-one] has an IC50 [1] of 8.5 nM and an IC50 [2] of 170 nM.

For CCn1cc2c(Cl)c(-c3c[nH]c4nc(N5CCC6(CCC[C@H]6N)CC5)n(C)c(=O)c34)ccc2n1 [Example 11, (R)-2-(1-amino-8-azaspiro[4.5]decan-8-yl)-5-(4-chloro-2-ethyl-2H-indazol-5-yl)-3-methyl-3,7-dihydro-4H-pyrrolo[2,3-d]pyrimidin-4-one], the IC50 [1] was 6.3 nM and the IC50 [2] was 53 nM.

In the case of CCn1cc2c(Cl)c(-c3c[nH]c4nc(N5CCC6(CC5)COC[C@H]6N)n(C)c(=O)c34)ccc2n1 [Example 12, (S)-2-(4-amino-2-oxa-8-azaspiro[4.5]decan-8-yl)-5-(4-chloro-2-ethyl-2H-indazol-5-yl)-3-methyl-3,7-dihydro-4H-pyrrolo[2,3-d]pyrimidin-4-one], the IC50 [1] is reported as 11 nM and the IC50 [2] is reported as 120 nM.

CCn1cc2c(Cl)c(-c3c[nH]c4nc(N5[C@@H]6CC[C@H]5C[C@@H](NC)C6)n(C)c(=O)c34)ccc2n1 [Example 13, 5-(4-chloro-2-ethyl-2H-indazol-5-yl)-3-methyl-2-(endo-3-(methylamino)-8-azabicyclo[3.2.1]octan-8-yl)-3,7-dihydro-4H-pyrrolo[2,3-d]pyrimidin-4-one] was tested, and the IC50 [1] was 19 nM and the IC50 [2] was 340 nM.

Compound CN[C@H]1C[C@H]2CC[C@@H](C1)N2c1nc2[nH]cc(-c3ccc4nn(C)cc4c3Cl)c2c(=O)n1C [Example 14, 5-(4-chloro-2-methyl-2H-indazol-5-yl)-3-methyl-2-(endo-3-(methylamino)-8-azabicyclo[3.2.1]octan-8-yl)-3,7-dihydro-4H-pyrrolo[2,3-d]pyrimidin-4-one] has an IC50 [1] of 24 nM and an IC50 [2] of 310 nM.

Compound CCn1cc2c(Cl)c(-c3c[nH]c4nc(N5[C@@H]6CC[C@H]5C[C@@](C)(N)C6)n(C)c(=O)c34)ccc2n1 [Example 15, 2-(endo-3-amino-3-methyl-8-azabicyclo[3.2.1]octan-8-yl)-5-(4-chloro-2-ethyl-2H-indazol-5-yl)-3-methyl-3,7-dihydro-4H-pyrrolo[2,3-d]pyrimidin-4-one] has an IC50 [1] of 17 nM and an IC50 [2] of 500 nM.

For Cn1cc2c(Cl)c(-c3c[nH]c4nc(N5[C@@H]6CC[C@H]5C[C@@](C)(N)C6)n(C)c(=O)c34)ccc2n1 [Example 16, 2-(endo-3-amino-3-methyl-8-azabicyclo[3.2.1]octan-8-yl)-5-(4-chloro-2-methyl-2H-indazol-5-yl)-3-methyl-3,7-dihydro-4H-pyrrolo[2,3-d]pyrimidin-4-one], the IC50 [1] was 11 nM and the IC50 [2] was 110 nM.

In the case of Cn1cc2c(Cl)c(-c3c[nH]c4nc(N5CC6COCC(C5)N6)n(C)c(=O)c34)ccc2n1 [Example 17, 2-(3-oxa-7,9-diazabicyclo[3.3.1]nonan-7-yl)-5-(4-chloro-2-methyl-2H-indazol-5-yl)-3-methyl-3,7-dihydro-4H-pyrrolo[2,3-d]pyrimidin-4-one], the IC50 [1] is reported as 43 nM and the IC50 [2] is reported as 800 nM.

Cn1cc2c(Cl)c(-c3c[nH]c4nc(N5C[C@@H]6C[C@H]5CN6)n(C)c(=O)c34)ccc2n1 [Example 21, 2-((1S,4S)-2,5-diazabicyclo[2.2.1]heptan-2-yl)-5-(4-chloro-2-methyl-2H-indazol-5-yl)-3-methyl-3,7-dihydro-4H-pyrrolo[2,3-d]pyrimidin-4-one] was tested, and the IC50 [1] was 11 nM and the IC50 [2] was 320 nM.

With Cn1cc2c(Cl)c(-c3c[nH]c4nc(N5C6COCC5CC(N)C6)n(C)c(=O)c34)ccc2n1 (stereo not drawn) [Example 22, 2-(7-amino-3-oxa-9-azabicyclo[3.3.1]nonan-9-yl)-5-(4-chloro-2-methyl-2H-indazol-5-yl)-3-methyl-3,7-dihydro-4H-pyrrolo[2,3-d]pyrimidin-4-one] the IC50 [1] was 14 nM and the IC50 [2] was 2200 nM.

With Cn1cc2c(Cl)c(-c3c[nH]c4nc(N5C[C@H]6C[C@@H]5CN6)n(C)c(=O)c34)ccc2n1 [Example 23, 2-((1R,4R)-2,5-diazabicyclo[2.2.1]heptan-2-yl)-5-(4-chloro-2-methyl-2H-indazol-5-yl)-3-methyl-3,7-dihydro-4H-pyrrolo[2,3-d]pyrimidin-4-one] the IC50 [1] was 120 nM and the IC50 [2] was 4100 nM.
